Test results taken from BindingDB's records for doi:10.1007/s00213-009-1521-8 (Case Western Reserve University, 2009).

Columns and labels:
[1] = molecular target: Sodium-dependent noradrenaline transporter (Homo sapiens, UniProt P23975)
[2] = molecular target: Beta-1 adrenergic receptor (Homo sapiens, UniProt P08588)
[3] = molecular target: 5-hydroxytryptamine receptor 5A (Homo sapiens, UniProt P47898)
[4] = molecular target: Alpha-1A adrenergic receptor (Homo sapiens, UniProt P35348)
Histamine H1 receptor = Histamine H1 receptor (Homo sapiens, UniProt P35367)
[5] = molecular target: 5-hydroxytryptamine receptor 1E (Homo sapiens, UniProt P28566)
5-hydroxytryptamine receptor 1E, sequence (P28566 whole entry): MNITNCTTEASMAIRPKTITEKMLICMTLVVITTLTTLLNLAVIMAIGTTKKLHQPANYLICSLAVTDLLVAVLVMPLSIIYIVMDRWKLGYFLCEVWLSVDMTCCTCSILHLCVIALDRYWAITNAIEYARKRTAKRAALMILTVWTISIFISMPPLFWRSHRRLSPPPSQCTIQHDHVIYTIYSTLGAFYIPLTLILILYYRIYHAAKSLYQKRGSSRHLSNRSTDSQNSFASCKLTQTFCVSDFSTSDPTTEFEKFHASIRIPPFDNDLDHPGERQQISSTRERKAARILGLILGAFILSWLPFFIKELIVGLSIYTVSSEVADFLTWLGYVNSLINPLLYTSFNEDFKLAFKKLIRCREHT

[6] = molecular target: 5-hydroxytryptamine receptor 1B (Homo sapiens, UniProt P28222)
[7] = molecular target: Alpha-2C adrenergic receptor (Homo sapiens, UniProt P18825)
D(1B) dopamine receptor = D(1B) dopamine receptor (Homo sapiens, UniProt P21918)
Histamine H4 receptor = Histamine H4 receptor (Homo sapiens, UniProt Q9H3N8)
Histamine H4 receptor, sequence (Q9H3N8 whole entry): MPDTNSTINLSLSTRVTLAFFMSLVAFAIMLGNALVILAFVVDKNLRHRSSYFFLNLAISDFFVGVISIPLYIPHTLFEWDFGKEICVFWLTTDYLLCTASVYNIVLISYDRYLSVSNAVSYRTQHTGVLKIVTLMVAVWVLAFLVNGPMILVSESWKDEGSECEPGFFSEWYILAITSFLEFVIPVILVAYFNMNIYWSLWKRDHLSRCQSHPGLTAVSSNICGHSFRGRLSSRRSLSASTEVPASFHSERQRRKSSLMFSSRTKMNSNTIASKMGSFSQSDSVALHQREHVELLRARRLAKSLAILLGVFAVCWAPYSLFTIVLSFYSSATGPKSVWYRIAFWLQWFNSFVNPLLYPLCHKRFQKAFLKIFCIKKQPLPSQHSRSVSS

[8] = molecular target: Muscarinic acetylcholine receptor M1 (Homo sapiens, UniProt P11229)
[9] = molecular target: Alpha-1D adrenergic receptor (Homo sapiens, UniProt P25100)
[10] = molecular target: Kappa-type opioid receptor (Homo sapiens, UniProt P41145)
[11] = molecular target: 5-hydroxytryptamine receptor 1A (Homo sapiens, UniProt P08908)
5-hydroxytryptamine receptor 1A, sequence (P08908 whole entry): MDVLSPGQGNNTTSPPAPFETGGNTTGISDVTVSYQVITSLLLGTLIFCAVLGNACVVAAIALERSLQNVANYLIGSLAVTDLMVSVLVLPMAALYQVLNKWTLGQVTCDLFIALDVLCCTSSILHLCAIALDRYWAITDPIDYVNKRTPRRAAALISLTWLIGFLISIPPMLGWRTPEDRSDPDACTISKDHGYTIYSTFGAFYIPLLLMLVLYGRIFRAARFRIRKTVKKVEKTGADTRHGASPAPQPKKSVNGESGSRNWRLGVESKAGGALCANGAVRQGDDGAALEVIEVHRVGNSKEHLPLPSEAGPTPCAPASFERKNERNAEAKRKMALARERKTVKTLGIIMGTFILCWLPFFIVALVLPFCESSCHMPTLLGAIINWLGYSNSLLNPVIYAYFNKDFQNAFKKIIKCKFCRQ

[12] = molecular target: Gamma-aminobutyric acid receptor subunit alpha-1 (Rattus norvegicus, UniProt P62813)
D(4) dopamine receptor = D(4) dopamine receptor (Homo sapiens, UniProt P21917)
[13] = molecular target: Beta-3 adrenergic receptor (Homo sapiens, UniProt P13945)
[14] = molecular target: 5-hydroxytryptamine receptor 1D (Homo sapiens, UniProt P28221)
Mu-type opioid receptor = Mu-type opioid receptor (Homo sapiens, UniProt P35372)
[15] = molecular target: 5-hydroxytryptamine receptor 6 (Homo sapiens, UniProt P50406)
[16] = molecular target: Beta-2 adrenergic receptor (Homo sapiens, UniProt P07550)
Beta-2 adrenergic receptor, sequence (P07550 whole entry): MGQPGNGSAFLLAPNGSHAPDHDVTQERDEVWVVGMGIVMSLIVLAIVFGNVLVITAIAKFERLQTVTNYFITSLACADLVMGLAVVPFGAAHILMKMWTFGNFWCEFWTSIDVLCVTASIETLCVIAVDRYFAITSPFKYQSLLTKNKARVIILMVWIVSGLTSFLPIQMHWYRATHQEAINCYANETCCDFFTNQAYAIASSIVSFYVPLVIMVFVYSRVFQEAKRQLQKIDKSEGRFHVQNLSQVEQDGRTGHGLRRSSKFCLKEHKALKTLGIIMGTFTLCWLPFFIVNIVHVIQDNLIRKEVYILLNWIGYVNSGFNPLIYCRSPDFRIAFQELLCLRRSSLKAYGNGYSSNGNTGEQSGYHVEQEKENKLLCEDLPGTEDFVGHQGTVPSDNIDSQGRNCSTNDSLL

[17] = molecular target: Alpha-1B adrenergic receptor (Homo sapiens, UniProt P35368)
[18] = molecular target: Muscarinic acetylcholine receptor M4 (Homo sapiens, UniProt P08173)
[19] = molecular target: 5-hydroxytryptamine receptor 3A (Homo sapiens, UniProt P46098)
5-hydroxytryptamine receptor 3A, sequence (P46098 whole entry): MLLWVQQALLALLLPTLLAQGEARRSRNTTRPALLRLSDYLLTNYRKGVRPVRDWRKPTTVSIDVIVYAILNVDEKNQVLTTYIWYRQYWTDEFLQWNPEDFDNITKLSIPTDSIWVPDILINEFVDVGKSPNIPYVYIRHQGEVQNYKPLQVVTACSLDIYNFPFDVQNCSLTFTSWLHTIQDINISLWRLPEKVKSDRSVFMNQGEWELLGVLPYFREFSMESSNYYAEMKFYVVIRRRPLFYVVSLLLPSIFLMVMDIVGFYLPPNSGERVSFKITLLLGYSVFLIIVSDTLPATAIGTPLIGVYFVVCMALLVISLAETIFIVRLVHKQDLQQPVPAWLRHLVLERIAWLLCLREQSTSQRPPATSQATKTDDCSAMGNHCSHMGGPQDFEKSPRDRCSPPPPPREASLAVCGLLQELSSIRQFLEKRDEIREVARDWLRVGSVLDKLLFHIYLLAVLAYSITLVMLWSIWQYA

[20] = molecular target: 5-hydroxytryptamine receptor 2C (Homo sapiens, UniProt P28335)
Histamine H2 receptor = Histamine H2 receptor (Homo sapiens, UniProt P25021)
[21] = molecular target: Muscarinic acetylcholine receptor M3 (Homo sapiens, UniProt P20309)
[22] = molecular target: Alpha-2A adrenergic receptor (Homo sapiens, UniProt P08913)
Alpha-2A adrenergic receptor, sequence (P08913 whole entry): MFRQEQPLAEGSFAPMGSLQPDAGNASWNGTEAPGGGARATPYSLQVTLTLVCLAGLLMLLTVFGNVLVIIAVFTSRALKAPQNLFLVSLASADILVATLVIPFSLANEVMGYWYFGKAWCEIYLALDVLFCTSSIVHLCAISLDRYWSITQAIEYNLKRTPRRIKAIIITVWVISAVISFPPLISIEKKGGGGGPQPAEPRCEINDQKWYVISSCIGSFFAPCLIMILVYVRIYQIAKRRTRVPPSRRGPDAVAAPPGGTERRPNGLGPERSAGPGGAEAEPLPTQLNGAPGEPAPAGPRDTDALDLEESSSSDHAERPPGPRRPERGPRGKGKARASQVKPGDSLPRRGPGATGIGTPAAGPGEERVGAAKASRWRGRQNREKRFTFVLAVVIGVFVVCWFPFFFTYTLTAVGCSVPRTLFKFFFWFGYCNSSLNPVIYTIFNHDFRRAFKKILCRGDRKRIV

D(1A) dopamine receptor = D(1A) dopamine receptor (Homo sapiens, UniProt P21728)
[23] = molecular target: Sigma non-opioid intracellular receptor 1 (Rattus norvegicus, UniProt Q9R0C9)
Sigma non-opioid intracellular receptor 1, sequence (Q9R0C9 whole entry): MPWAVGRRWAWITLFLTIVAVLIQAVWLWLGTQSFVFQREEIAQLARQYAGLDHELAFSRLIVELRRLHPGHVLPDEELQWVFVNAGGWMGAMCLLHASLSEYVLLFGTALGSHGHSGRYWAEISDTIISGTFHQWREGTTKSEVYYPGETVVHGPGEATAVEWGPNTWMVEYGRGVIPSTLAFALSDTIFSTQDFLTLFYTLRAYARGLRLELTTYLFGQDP

[24] = molecular target: Muscarinic acetylcholine receptor M5 (Homo sapiens, UniProt P08912)
[25] = molecular target: Delta-type opioid receptor (Homo sapiens, UniProt P41143)
Delta-type opioid receptor, sequence (P41143 whole entry): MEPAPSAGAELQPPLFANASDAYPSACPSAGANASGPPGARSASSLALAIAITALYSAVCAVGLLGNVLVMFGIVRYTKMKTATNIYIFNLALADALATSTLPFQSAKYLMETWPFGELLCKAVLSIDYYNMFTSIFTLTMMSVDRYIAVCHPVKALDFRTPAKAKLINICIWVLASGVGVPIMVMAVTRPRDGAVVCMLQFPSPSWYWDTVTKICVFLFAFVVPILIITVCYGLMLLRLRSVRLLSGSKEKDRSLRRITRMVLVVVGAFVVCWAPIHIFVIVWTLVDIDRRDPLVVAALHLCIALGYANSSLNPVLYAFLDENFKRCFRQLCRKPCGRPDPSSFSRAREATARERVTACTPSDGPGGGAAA

[26] = molecular target: Prostaglandin E2 receptor EP3 subtype (Homo sapiens, UniProt P43115)
Prostaglandin E2 receptor EP3 subtype, sequence (P43115 whole entry): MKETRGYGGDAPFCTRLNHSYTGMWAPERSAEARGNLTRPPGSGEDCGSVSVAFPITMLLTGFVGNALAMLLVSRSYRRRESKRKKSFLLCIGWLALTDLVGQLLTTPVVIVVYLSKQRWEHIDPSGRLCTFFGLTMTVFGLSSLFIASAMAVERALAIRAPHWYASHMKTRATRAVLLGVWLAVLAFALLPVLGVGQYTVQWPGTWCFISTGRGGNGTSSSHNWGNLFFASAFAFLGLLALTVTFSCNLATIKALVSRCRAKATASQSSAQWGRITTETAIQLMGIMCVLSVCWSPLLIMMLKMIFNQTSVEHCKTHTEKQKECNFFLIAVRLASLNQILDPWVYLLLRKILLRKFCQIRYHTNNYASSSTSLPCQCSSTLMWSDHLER

[27] = molecular target: Muscarinic acetylcholine receptor M2 (Homo sapiens, UniProt P08172)
[28] = molecular target: Prostaglandin E2 receptor EP4 subtype (Homo sapiens, UniProt P35408)

5-hydroxytryptamine receptor 5A, sequence (P47898 whole entry): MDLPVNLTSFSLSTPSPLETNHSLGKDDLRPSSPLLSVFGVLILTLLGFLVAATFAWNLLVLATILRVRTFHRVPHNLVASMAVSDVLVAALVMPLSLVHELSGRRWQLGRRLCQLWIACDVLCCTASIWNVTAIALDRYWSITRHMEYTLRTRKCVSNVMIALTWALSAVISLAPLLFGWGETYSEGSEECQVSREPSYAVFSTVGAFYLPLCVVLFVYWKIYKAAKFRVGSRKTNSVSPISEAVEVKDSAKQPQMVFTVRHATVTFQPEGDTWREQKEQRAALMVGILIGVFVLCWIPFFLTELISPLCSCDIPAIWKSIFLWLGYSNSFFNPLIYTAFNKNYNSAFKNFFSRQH
Alpha-1A adrenergic receptor, sequence (P35348 whole entry): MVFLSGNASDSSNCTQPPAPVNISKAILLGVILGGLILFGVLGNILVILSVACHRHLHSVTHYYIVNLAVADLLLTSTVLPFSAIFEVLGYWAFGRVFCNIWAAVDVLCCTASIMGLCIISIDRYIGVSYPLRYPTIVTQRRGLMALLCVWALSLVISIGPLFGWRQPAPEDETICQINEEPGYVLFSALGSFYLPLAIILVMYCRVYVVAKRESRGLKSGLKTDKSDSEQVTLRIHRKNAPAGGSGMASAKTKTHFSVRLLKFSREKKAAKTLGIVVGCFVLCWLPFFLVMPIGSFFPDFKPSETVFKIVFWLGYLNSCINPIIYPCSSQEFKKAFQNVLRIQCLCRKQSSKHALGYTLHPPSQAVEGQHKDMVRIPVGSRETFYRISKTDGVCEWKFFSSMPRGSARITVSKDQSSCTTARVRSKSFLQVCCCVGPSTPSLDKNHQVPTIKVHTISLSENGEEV
Beta-1 adrenergic receptor, sequence (P08588 whole entry): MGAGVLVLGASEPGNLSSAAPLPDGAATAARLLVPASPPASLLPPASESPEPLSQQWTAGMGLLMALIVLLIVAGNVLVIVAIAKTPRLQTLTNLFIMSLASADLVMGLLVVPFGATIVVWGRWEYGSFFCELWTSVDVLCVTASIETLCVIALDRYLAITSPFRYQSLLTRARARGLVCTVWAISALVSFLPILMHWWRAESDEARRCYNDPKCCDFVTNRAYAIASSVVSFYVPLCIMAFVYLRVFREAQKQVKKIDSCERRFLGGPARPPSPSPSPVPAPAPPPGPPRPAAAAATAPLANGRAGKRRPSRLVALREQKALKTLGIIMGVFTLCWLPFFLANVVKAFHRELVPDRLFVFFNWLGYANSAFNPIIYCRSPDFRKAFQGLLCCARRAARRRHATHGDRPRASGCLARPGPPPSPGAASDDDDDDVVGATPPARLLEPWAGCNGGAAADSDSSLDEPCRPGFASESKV

CCN1CCCC1CNC(=O)c1cc(S(=O)(=O)CC)c(N)cc1OC (stereo not given) [NSC_2159]
Ki [1]: > 10 µM
Ki [2]: > 10 µM
Ki [3]: > 10 µM
Ki [4]: > 10 µM
Ki (Histamine H1 receptor): > 10 µM
Ki [5]: > 10 µM
Ki [6]: 1740 nM
Ki [7]: 1540 nM
Ki (D(1B) dopamine receptor): > 10 µM
Ki (Histamine H4 receptor): > 10 µM
Ki [8]: > 10 µM
Ki [9]: > 10 µM
Ki [10]: > 10 µM
Ki [11]: > 10 µM
Ki [12]: > 10 µM
Ki (D(4) dopamine receptor): 2370 nM
Ki [13]: > 10 µM
Ki [14]: 1340 nM
Ki (Mu-type opioid receptor): > 10 µM
Ki [15]: 4.15 µM
Ki [16]: > 10 µM
Ki [17]: > 10 µM
Ki [18]: > 10 µM
Ki [19]: > 10 µM
Ki [20]: > 10 µM
Ki (Histamine H2 receptor): > 10 µM
Ki [21]: > 10 µM
Ki [22]: 1110 nM
Ki (D(1A) dopamine receptor): > 10 µM
Ki [23]: > 10 µM
Ki [24]: > 10 µM
Ki [25]: > 10 µM
Ki [26]: > 10 µM
Ki [27]: > 10 µM
Ki [28]: > 10 µM
